In brackets after ≈: the same amount, converted by molar mass. Where a name gives a salt, the structure may show the parent alone.
Tests used:
[1] = Intrinsic dissolution rate and solubility in 0.1 N HCl with 1% Tween 80 (USP <1087>); assay type: physicochemical; settings: 0.1 N HCl with 1% Tween 80, 37° C.; for Solubility, time point 15 min / Solubility, time point 30 min / Solubility, time point 45 min / Solubility, time point 60 min / Solubility, time point 75 min / Solubility, time point 90 min / Solubility, time point 105 min / Solubility, time point 120 min: 500 mL, pellet about 75 mg; for Intrinsic Dissolution Rate IDR: paddle 100 rpm, die surface 0.5 cm^2; for Solubility, Cumulative: sum of the 15-120 min time points
Description: The intrinsic dissolution rate was determined by forming compacted pellets of approximately 75 mg of API using a compression force of 1200 pounds of force, and each pellet (die surface area: 0.5 cm^2) was immersed into a flat bottom vessel containing 500 mL of medium (aqueous 0.1 N HCl with 1% Tween 80 (polyoxyethylene (20) sorbitan monooleate)), using a Distek 2100A dissolution bath, and Distek Circulator/heater (set to 37° C.), with a paddle speed of 100 rpm. An aliquot of the sample (1 mL) was pulled from dissolution media at 15, 30, 45, 60, 75, 90, 105, and 120 minutes, filtered, and analyzed by HPLC. The slope of the dissolution profile corresponded to an intrinsic dissolution rate of hemi-fumarate salt Form B of 6.2 μg/(min·cm^2) as compared to 8.9 μg/(min·cm^2) for Compound 1 (free base). Determination of intrinsic dissolution rate (IDR) was performed for Compound 1 and seven different salts of Compound 1 according to USP <1087> in 0.1 N hydrochloric acid with 1% Tween 80 (Polyoxyethylene […] sorbitan monooleate). Compacted pellets containing approximately 75 mg API were prepared using a compression force of 1200 pounds of force, and each pellet (die surface area: 0.5 cm^2) was immersed into a flat bottom vessel containing 500 mL of medium, using a Distek 2100A dissolution bath, and Distek Circulator/heater (set to 37° C.), with a paddle speed of 100 rpm. An aliquot of the sample (1 mL) was pulled from dissolution media at 15, 30, 45, 60, 75, 90, 105, and 120 minutes, filtered, and analyzed by HPLC. HPLC for IDR and solid-state stability analyses were conducted with an Agilent 1260 Infinity system equipped with a G1311B Quad pump, […] Autosampler, G1330B auto-sampler thermostat, G1316A Thermostatted Column Compartment with a column switch valve, and […] diode array detector.

[2] = Pharmacokinetic analysis of Compound 1 and its salts after oral capsule administration (Example 4); assay type: in vivo, cynomolgus monkeys; settings: single PO capsule, 30 mg/kg
Description: A pharmacokinetic analysis was performed comparing administration of Compound 1 with certain salts of Compound 1 after oral (PO) administration in 3 male cynomolgus monkeys. The subjects received a single PO oral gavage of active pharmaceutical ingredient (API) (e.g., Compound 1 fumarate, Compound 1 sulfate, Compound 1 hydrochloride, Compound 1 phosphate, Compound 1 tosylate, Compound 1 malonate, Compound 1 maleate, or Compound 1 free base) in a capsule at a dose of 30 mg/kg. Following dose administration, the animals were flushed with approximately 10 milliliters of tap water to ensure all API was administered. Animals were observed twice daily and at sample collection time-points for any abnormal clinical and behavioral signs. Body weights were taken prior to dosing and weekly thereafter until study termination. Blood samples (0.5 mL) were collected pre-dose, 15 minutes, 30 minutes, and 1, 2, 4, 6, 8, 10, 12, and 24 hours post-dose. Each blood sample was collected from the monkey's femoral, saphenous or other available vein via direct venipuncture, placed into a polypropylene tube containing K2EDTA as the anticoagulant, and gently inverted several times to mix. The blood samples were kept on wet ice until centrifugation. Blood was centrifuged within 10 minutes of collection. The samples were centrifuged at a temperature of 4° C., at 3,000 g, for 5 minutes. The resulting plasma (˜0.25 mL) was divided into two equal aliquots (125 μL each) into polypropylene tubes, designated as Set A and Set B, after centrifugation. Plasma samples designated for certain metabolites (Set A) were treated with 12.5 μL of 2 M ascorbic acid (plasma: ascorbic acid=[…], v:v) prepared beforehand by combining 0.352 g of ascorbic acid into 1 mL of sterile water in a glass vial and mixing thoroughly. […] Once plasma was prepared, the samples were snap frozen on dry ice. All plasma samples were stored frozen below −70° C. until analyzed.

[3] = listed as Compound 1 (parent free base)
[4] = 3 male cynomolgus monkeys, plasma Compound 1
[5] = 3 male cynomolgus monkeys, plasma Compound 1, listed as Free base

SMILES | Cmax [2, 4] [ng/mL] | Solubility, time point 15 min [1] [µg/mL] | Solubility, time point 30 min [1] [µg/mL] | Solubility, time point 45 min [1] [µg/mL] | Solubility, time point 60 min [1] [µg/mL] | Solubility, time point 75 min [1] [µg/mL] | Solubility, time point 90 min [1] [µg/mL] | Solubility, time point 105 min [1] [µg/mL] | Solubility, time point 120 min [1] [µg/mL] | Intrinsic Dissolution Rate IDR [1] | Solubility, Cumulative [1] [µg/mL] | AUClast [2, 4] [ng·h/mL] | Tmax [2, 4] [h] | further results
[2H]C([2H])([2H])C(c1cc2nnc(-c3cc(F)ccc3F)n2nc1OCc1ncnn1C)(C([2H])([2H])[2H])C([2H])([2H])[2H] [Compound 1, 3-(2,5-difluorophenyl)-7-[1,1-di(methyl-d3)ethyl-2,2,2-d3]-6-[(1-methyl-1H-1,2,4-triazol-5-yl)methoxy]-1,2,4-triazolo[4,3-b]pyridazine] | 1550 | – | – | – | – | – | – | – | – | – | – | – | – | Solubility, time point 15 min [1, 3]: 0.413 µg/mL (≈ 1.01 µM); Solubility, time point 30 min [1, 3]: 0.464 µg/mL (≈ 1.14 µM); Solubility, time point 45 min [1, 3]: 0.641 µg/mL (≈ 1.57 µM); Solubility, time point 60 min [1, 3]: 0.823 µg/mL (≈ 2.01 µM); Solubility, time point 75 min [1, 3]: 0.89 µg/mL (≈ 2.18 µM); Solubility, time point 90 min [1, 3]: 1.026 µg/mL (≈ 2.51 µM); Solubility, time point 105 min [1, 3]: 1.23 µg/mL (≈ 3.01 µM); Solubility, time point 120 min [1, 3]: 1.31 µg/mL (≈ 3.21 µM); Intrinsic Dissolution Rate IDR ([1]; listed as Compound 1 (free base)): 8.9 μg/(min · cm^2); Intrinsic Dissolution Rate IDR [1, 3]: 8.9 μg/(min · cm^2); Solubility, Cumulative [1, 3]: 6.797 µg/mL (≈ 16.6 µM); AUClast [2, 5]: 25463 ng·h/mL; Tmax [2, 5]: 4.0 h; AUClast ([2]; male cynomolgus monkeys): 25463 ng·h/mL
[2H]C([2H])([2H])C(c1cc2nnc(-c3cc(F)ccc3F)n2nc1OCc1ncnn1C)(C([2H])([2H])[2H])C([2H])([2H])[2H] [Maleate Salt, 3-(2,5-difluorophenyl)-7-[1,1-di(methyl-d3)ethyl-2,2,2-d3]-6-[(1-methyl-1H-1,2,4-triazol-5-yl)methoxy]-1,2,4-triazolo[4,3-b]pyridazine] | 1388 | 0.245 | 0.36 | 0.462 | 0.567 | 0.681 | 0.791 | 0.941 | 1.01 | 7.3 μg/(min · cm^2) | 5.057 | 20575 | 12.0 | –
[2H]C([2H])([2H])C(c1cc2nnc(-c3cc(F)ccc3F)n2nc1OCc1ncnn1C)(C([2H])([2H])[2H])C([2H])([2H])[2H] [Malonate Salt, 3-(2,5-difluorophenyl)-7-[1,1-di(methyl-d3)ethyl-2,2,2-d3]-6-[(1-methyl-1H-1,2,4-triazol-5-yl)methoxy]-1,2,4-triazolo[4,3-b]pyridazine] | 2010 | 0.352 | 0.454 | 0.579 | 0.68 | 0.757 | 0.87 | 1.04 | 1.05 | 6.9 μg/(min · cm^2) | 5.782 | 24694 | 4.7 | –
[2H]C([2H])([2H])C(c1cc2nnc(-c3cc(F)ccc3F)n2nc1OCc1ncnn1C)(C([2H])([2H])[2H])C([2H])([2H])[2H] [Phosphate Salt, 3-(2,5-difluorophenyl)-7-[1,1-di(methyl-d3)ethyl-2,2,2-d3]-6-[(1-methyl-1H-1,2,4-triazol-5-yl)methoxy]-1,2,4-triazolo[4,3-b]pyridazine] | 1096 | 0.358 | 0.375 | 0.449 | 0.543 | 0.615 | 0.769 | 0.912 | 0.11 | 7.0 μg/(min · cm^2) | 4.131 | 18378 | 5.3 | –
[2H]C([2H])([2H])C(c1cc2nnc(-c3cc(F)ccc3F)n2nc1OCc1ncnn1C)(C([2H])([2H])[2H])C([2H])([2H])[2H] [Sulfate Salt, 3-(2,5-difluorophenyl)-7-[1,1-di(methyl-d3)ethyl-2,2,2-d3]-6-[(1-methyl-1H-1,2,4-triazol-5-yl)methoxy]-1,2,4-triazolo[4,3-b]pyridazine] | 1151 | 0.316 | 0.364 | 0.453 | 0.569 | 0.668 | 0.772 | 0.944 | 1.06 | 7.1 μg/(min · cm^2) | 5.146 | 18231 | 4.0 | –

— patent publication US20250275966A1, “GABAA RECEPTOR MODULATOR SALTS, PARTICLES, AND USES THEREOF” (Engrail Therapeutics, Inc., priority 2022, published 2025)
